The values below come from patent US6057359A, “Spontaneously dispersible concentrates comprising esters of baccatin-III compounds having antitumor and antiviral activity” (Marigen S.A., priority 1997, dated 2000).

Data set [1] concerns Py6 cells (Virus transformed 3T3 mouse-fibroblasts). Nature of the data set: Test of cell toxicity / cytotoxicity of MARIGENOL concentrates on Py6 cells (plaque assay, serial dilution). Format: cell-based. Here is the method:
A biological assay system using microtiter plates and serial dilutions has been developed. Batches of 10^4 tumour cells per ml were set up in culture medium RPMI 1640 and inactivated with 10% of fetal calf serum (GIBCO); they are spread at a density low enough to enable them to grow during the assay, in non-confluent monolayers. Samples are added after 6 to 24 hours, with 100 μl per row, to which 100 μl of medium are added in the first well. Half of this mixture is withdrawn, transferred into the next well and again treated with 100 μl of medium, etc.
[…] They are then stained and fixed using 0.1% crystal violet (Fluka, Buchs) in a solution of 70% of methanol, 1% of formaldehyde and 29% of water. The samples are evaluated under the microscope, magnification 300×. The greatest cytotoxic dilution is determined. The samples can also be evaluated quantitatively by means of scanning and absorption measurement in a spectrophotometer.
N.B.: On the subject of the eternalized Py6-cells cf.: "Biochemistry", Coordinating Editor Geoffrey L. Zubay, Addison-Wesley Publishing Company, 1983, p.1079.

Another data set concerns LEUKEMIA K 562. Nature of the data set: Vitality/proliferation test (Tritium), leukemia K 562. It is filed as cell-based, human. To be noted: controls 50'037 cpm. The text has this:
(§1) 4.0 Comparative assays with human tumor cell lines
(§2) VITALITY TEST/1%-MARIGENOL-CONCENTRATE
(§3) 1 × 10^4 cells per well
(§4) Proliferation test (Tritium: 1 μCi/well H^+)

In the next data set the test system is LEUKEMIA DAUDI-LINE. Description: Vitality/proliferation test (Tritium), leukemia Daudi-line. It is filed as cell-based, human. To be noted: controls 23'090 cpm.
Description: as §1, §2, §3, §4

The conditions of data set [2]: cited from earlier work.

For `CC(=O)O[C@H]1C(=O)[C@@]2(C)[C@H]([C@H](OC(=O)c3ccccc3)[C@]3(O)C[C@H](O)C(C)=C1C3(C)C)[C@]1(OC(C)=O)CO[C@@H]1C[C@@H]2O` [BACCATIN III-A.S., Baccatin-III], the “in dilution active up to 1: (calculated on active substance content, A.S.)” value is given as 12.8 Mio in data set [1] (24 h exposure), 12.8 Mio in data set [1] (48 h exposure) and 100 Mio in data set [1] (72 h exposure). Also, the “in dilution active up to 1: (microemulsion ME 1:100)” value in data set [1] (72 h exposure, dilution of ME 1:100, given in Mio.) amounted to 1 Mio. Also, the Proliferation test % amounted to 1.3% in the data set with LEUKEMIA K 562 (10^-3); 1.5% in the data set with LEUKEMIA K 562 (10^-4); 6.3% in the data set on LEUKEMIA K 562 (10^-5); 3.0% in the data set on LEUKEMIA DAUDI-LINE (10^-3); 3.4% in the data set on LEUKEMIA DAUDI-LINE (10^-4); 61.4% with LEUKEMIA DAUDI-LINE (10^-5). The Proliferation test cpm is on record as 680 cpm in the data set on LEUKEMIA K 562 (10^-3), 757 cpm in the data set on LEUKEMIA K 562 (10^-4), 708 cpm with LEUKEMIA DAUDI-LINE (10^-3) and 795 cpm in the data set on LEUKEMIA DAUDI-LINE (10^-4). The solubility in water result in data set [2] is given as “very low”.
